Experimental data from patent publication US20190307776A1, “AZA-S[…] HUMAN IMMUNODEFICIENCY VIRUS REPLICATION” (priority 2016, published 2019).

Test system: recombinant NL4-3 virus
Test: HIV cell culture assay
Assay type: cell-based
Details: Human immunodeficiency virus 1, NL43, MT2
Experimental: HIV cell culture assay—MT-2 cells and 293T cells were obtained from the NIH AIDS Research and Reference Reagent Program. MT-2 cells were propagated in RPMI 1640 media supplemented with 10% heat inactivated fetal bovine serum, 100 […]. The 293T cells were propagated in DMEM media supplemented with 10% heat inactivated fetal bovine serum (FBS), 100 units/ml penicillin G and 100 μg/ml streptomycin. The proviral DNA clone of NL4-3 was obtained from the NIH AIDS Research and Reference Reagent Program. A recombinant NL4-3 virus, in which a section of the nef gene from NL4-3 was replaced with the Renilla luciferase gene, was used as a reference virus. In addition, residue Gag P373 was converted to P373S. Briefly, the recombinant virus was prepared by transfection of the altered proviral clone of NL4-3. Transfections were performed in 293T cells using LipofectAMINE PLUS from Invitrogen (Carlsbad, Calif.), according to manufacturer's instruction. The virus was titered in MT-2 cells using luciferase enzyme activity as a marker. Luciferase was quantitated using the Dual Luciferase kit from Promega (Madison, Wis.), with modifications to the manufacturer's protocol. The diluted Passive Lysis solution was pre-mixed with the re-suspended Luciferase Assay Reagent and the re-suspended Stop & Glo Substrate (2:1:1 ratio). Fifty (50) μL of the mixture was added to each aspirated well on assay plates and luciferase activity was measured immediately on a Wallac TriLux (Perkin-Elmer). Antiviral activities of inhibitors toward the recombinant virus were quantified by measuring luciferase activity in cells infected for 4-5 days with NLRluc recombinants in the presence serial dilutions of the inhibitor.

Structure (SMILES)	EC50 [nM]
C=C(C)[C@@H]1CC[C@]2(C(=O)O)CC[C@]3(C)[C@H](CC[C@@H]4[C@@]5(C)CC(=O)N(c6ccc(C(=O)O)cc6)C(C)(C)[C@@H]5CC[C@]43C)[C@@H]12 [Example 22, (4aR,6aR,6bR,8aS,11R,11aR,11bR,13aR,13bR)-3-(4-carboxyphenyl)-4,4,6a,6b,13b-pentamethyl-2-oxo-11-(prop-1-en-2-yl)icosahydro-8aH-cyclopenta[5,6]naphtho[2,1-f]isoquinoline-8a-carboxylic acid]	> 3000
C=C(C)[C@@H]1CC[C@]2(CNCCCN3CCS(=O)(=O)CC3)CC[C@]3(C)[C@H](CC[C@@H]4[C@@]5(C)CCN(C/C=C/C(=O)O)C(C)(C)[C@@H]5CC[C@]43C)[C@@H]12 [Example 34, (E)-4-((4aR,6aR,6bR,8aS,11R,11aR,11bR,13aR,13bR)-8a-(((3-(1,1-dioxidothiomorpholino)propyl)amino)methyl)-4,4,6a,6b,13b-pentamethyl-11-(prop-1-en-2-yl)hexadecahydro-1H-cyclopenta[5,6]naphtho[2,1-f]isoquinolin-3(2H,4H,13bH)-yl)but-2-enoic acid]	> 3000
C=C(C)[C@@H]1CC[C@]2(CNCCCN3CCS(=O)(=O)CC3)CC[C@]3(C)[C@H](CC[C@@H]4[C@@]5(C)CCN(C(=O)C(=O)NC(C)(C)C(=O)O)C(C)(C)[C@@H]5CC[C@]43C)[C@@H]12 [Example 38, 2-(2-((4aR,6aR,6bR,8aS,11R,11aR,11bR,13aR,13bR)-8a-(((3-(1,1-dioxidothiomorpholino)propyl)amino)methyl)-4,4,6a,6b,13b-pentamethyl-11-(prop-1-en-2-yl)hexadecahydro-1H-cyclopenta[5,6]naphtho[2,1-f]isoquinolin-3(2H,4H,13bH)-yl)-2-oxoacetamido)-2-methylpropanoic acid]	> 3000
C=C(C)[C@@H]1CC[C@]2(CO)CC[C@]3(C)[C@H](CC[C@@H]4[C@@]5(C)CCCN(C(=O)CCC(=O)O)C(C)(C)C5CC[C@]43C)[C@@H]12 (stereo partly drawn) [Example 3, 4-((7aR,7bR,9aS,12R,12aR,12bR,14aR,14bR)-9a-(hydroxymethyl)-5,5,7a,7b,14b-pentamethyl-12-(prop-1-en-2-yl)icosahydrocyclopenta[7,8]phenanthro[2,1-c]azepin-4(1H)-yl)-4-oxobutanoic acid]	> 8000
C=C(C)[C@@H]1CC[C@]2(CNCCCN3CCS(=O)(=O)CC3)CC[C@]3(C)[C@H](CC[C@@H]4[C@@]5(C)CCN(C(=O)/C=C/c6ccc(C(=O)O)cc6)C(C)(C)[C@@H]5CC[C@]43C)[C@@H]12 [Example 29, 4-((E)-3-((4aR,6aR,6bR,8aS,11R,11aR,11bR,13aR,13bR)-8a-(((3-(1,1-dioxidothiomorpholino)propyl)amino)methyl)-4,4,6a,6b,13b-pentamethyl-11-(prop-1-en-2-yl)hexadecahydro-1H-cyclopenta[5,6]naphtho[2,1-f]isoquinolin-3(2H,4H,13bH)-yl)-3-oxoprop-1-en-1-yl)benzoic acid]	1590
C=C(C)[C@@H]1CC[C@]2(CO)CC[C@]3(C)[C@H](CC[C@@H]4[C@@]5(C)CCN(S(=O)(=O)c6ccsc6C(=O)O)C(C)(C)C5CC[C@]43C)[C@@H]12 (stereo partly drawn) [Example 21, 3-(((6aR,6bR,8aS,11R,11aR,11bR,13aR,13bR)-8a-(hydroxymethyl)-4,4,6a,6b,13b-pentamethyl-11-(prop-1-en-2-yl)icosahydro-3H-cyclopenta[5,6]naphtho[2,1-f]isoquinolin-3-yl)sulfonyl)thiophene-2-carboxylic acid]	> 8000
C=C(C)[C@@H]1CC[C@]2(CNCCCN3CCS(=O)(=O)CC3)CC[C@]3(C)[C@H](CC[C@@H]4[C@@]5(C)CCN(c6ncc(C(=O)O)cn6)C(C)(C)[C@@H]5CC[C@]43C)[C@@H]12 [Example 49, 2-((4aR,6aR,6bR,8aS,11R,11aR,11bR,13aR,13bR)-8a-(((3-(1,1-dioxidothiomorpholino)propyl)amino)methyl)-4,4,6a,6b,13b-pentamethyl-11-(prop-1-en-2-yl)hexadecahydro-1H-cyclopenta[5,6]naphtho[2,1-f]isoquinolin-3(2H,4H,13bH)-yl)pyrimidine-5-carboxylic acid]	0.7
C=C(C)[C@@H]1CC[C@]2(CNCCCN3CCS(=O)(=O)CC3)CC[C@]3(C)[C@H](CC[C@@H]4[C@@]5(C)CCN(C(=O)C(=O)O)C(C)(C)[C@@H]5CC[C@]43C)[C@@H]12 [Example 37, 2-((4aR,6aR,6bR,8aS,11R,11aR,11bR,13aR,13bR)-8a-(((3-(1,1-dioxidothiomorpholino)propyl)amino)methyl)-4,4,6a,6b,13b-pentamethyl-11-(prop-1-en-2-yl)hexadecahydro-1H-cyclopenta[5,6]naphtho[2,1-f]isoquinolin-3(2H,4H,13bH)-yl)-2-oxoacetic acid]	> 3000
C=C(C)[C@@H]1CC[C@]2(CNCCCN3CCS(=O)(=O)CC3)CC[C@]3(C)[C@H](CC[C@@H]4[C@@]5(C)CCN(C(=O)C(=O)NC6(C(=O)O)CC6)C(C)(C)[C@@H]5CC[C@]43C)[C@@H]12 [Example 39, 1-(2-((4aR,6aR,6bR,8aS,11R,11aR,11bR,13aR,13bR)-8a-(((3-(1,1-dioxidothiomorpholino)propyl)amino)methyl)-4,4,6a,6b,13b-pentamethyl-11-(prop-1-en-2-yl)hexadecahydro-1H-cyclopenta[5,6]naphtho[2,1-f]isoquinolin-3(2H,4H,13bH)-yl)-2-oxoacetamido)cyclopropanecarboxylic acid]	> 3000
C=C(C)[C@@H]1CC[C@]2(CN(C)CCCN3CCS(=O)(=O)CC3)CC[C@]3(C)[C@H](CC[C@@H]4[C@@]5(C)CCN(CC(=O)NC(C)(C)C(=O)O)C(C)(C)[C@@H]5CC[C@]43C)[C@@H]12 [Example 36, 2-(2-((4aR,6aR,6bR,8aS,11R,11aR,11bR,13aR,13bR)-8a-(((3-(1,1-dioxidothiomorpholino)propyl)(methyl)amino)methyl)-4,4,6a,6b,13b-pentamethyl-11-(prop-1-en-2-yl)hexadecahydro-1H-cyclopenta[5,6]naphtho[2,1-f]isoquinolin-3(2H,4H,13bH)-yl)acetamido)-2-methylpropanoic acid]	1300
C=C(C)[C@@H]1CC[C@]2(CNCCCN3CCS(=O)(=O)CC3)CC[C@]3(C)[C@H](CC[C@@H]4[C@@]5(C)CCN(C(=O)CC(C)(C)CC(=O)O)C(C)(C)[C@@H]5CC[C@]43C)[C@@H]12 [Example 24, 5-((4aR,6aR,6bR,8aS,11R,11aR,11bR,13aR,13bR)-8a-(((3-(1,1-dioxidothiomorpholino)propyl)amino)methyl)-4,4,6a,6b,13b-pentamethyl-11-(prop-1-en-2-yl)icosahydro-3H-cyclopenta[5,6]naphtho[2,1-f]isoquinolin-3-yl)-3,3-dimethyl-5-oxopentanoic acid]	120
C=C(C)[C@@H]1CC[C@]2(CNCCCN3CCS(=O)(=O)CC3)CC[C@]3(C)[C@H](CC[C@@H]4[C@@]5(C)CCN(C(=O)Cc6cccc(CC(=O)O)c6)C(C)(C)[C@@H]5CC[C@]43C)[C@@H]12 [Example 27, 2-(3-(2-((4aR,6aR,6bR,8aS,11R,11aR,11bR,13aR,13bR)-8a-(((3-(1,1-dioxidothiomorpholino)propyl)amino)methyl)-4,4,6a,6b,13b-pentamethyl-11-(prop-1-en-2-yl)hexadecahydro-1H-cyclopenta[5,6]naphtho[2,1-f]isoquinolin-3(2H,4H,13bH)-yl)-2-oxoethyl)phenyl)acetic acid]	300
C=C(C)[C@@H]1CC[C@]2(CNCCCN3CCS(=O)(=O)CC3)CC[C@]3(C)[C@H](CC[C@@H]4[C@@]5(C)CCN(c6ccc(C(=O)O)cc6)C(C)(C)[C@@H]5CC[C@]43C)[C@@H]12 [Example 48, 4-((4aR,6aR,6bR,8aS,11R,11aR,11bR,13aR,13bR)-8a-(((3-(1,1-dioxidothiomorpholino)propyl)amino)methyl)-4,4,6a,6b,13b-pentamethyl-11-(prop-1-en-2-yl)hexadecahydro-1H-cyclopenta[5,6]naphtho[2,1-f]isoquinolin-3(2H,4H,13bH)-yl)benzoic acid]	5
C=C(C)[C@@H]1CC[C@]2(CO)CC[C@]3(C)[C@H](CC[C@@H]4[C@@]5(C)CCCN(C(=O)CC(=O)O)C(C)(C)C5CC[C@]43C)[C@@H]12 (stereo partly drawn) [Example 1, 3-((7aR,7bR,9aS,12R,12aR,12bR,14aR,14bR)-9a-(hydroxymethyl)-5,5,7a,7b,14b-pentamethyl-12-(prop-1-en-2-yl)icosahydrocyclopenta[7,8]phenanthro[2,1-c]azepin-4(1H)-yl)-3-oxopropanoic acid]	2310
C=C(C)[C@@H]1CC[C@]2(CNCCCN3CCS(=O)(=O)CC3)CC[C@]3(C)[C@H](CC[C@@H]4[C@@]5(C)CCN(c6ncc(C(N)=O)cn6)C(C)(C)[C@@H]5CC[C@]43C)[C@@H]12 [Example 50, 2-((4aR,6aR,6bR,8aS,11R,11aR,11bR,13aR,13bR)-8a-(((3-(1,1-dioxidothiomorpholino)propyl)amino)methyl)-4,4,6a,6b,13b-pentamethyl-11-(prop-1-en-2-yl)hexadecahydro-1H-cyclopenta[5,6]naphtho[2,1-f]isoquinolin-3(2H,4H,13bH)-yl)pyrimidine-5-carboxamide]	60
